Publication PMC5321639, “Design and pharmacodynamics of recombinant NZ2114 histidine mutants with improved activity against methicillin-resistant Staphylococcus aureus” (AMB Express, 2017)
In brackets after ≈: the same amount, converted by molar mass. Marks after values point to notes of the source that are not given here.

Assays:
S. suis CVCC606 = conditions: data from previous results; ref Jiao et al. [2015]; cited from earlier work
Excerpt: (§1) Table 2 MIC assays of H1, H2, H3, H6, H8, NZ2114, and vancomycin against G^+ and G^− pathogens | column: MIC (μM) / Van

S. suis CVCC3309 = conditions: data from previous results; ref Jiao et al. [2015]; cited from earlier work
Excerpt: as §1

S. suis CVCC3928 = conditions: data from previous results; ref Jiao et al. [2015]; cited from earlier work
Excerpt: as §1

S. aureus ATCC43300 [1] = test: microbe, parasite or virus in culture; assay type: cell-based, Staphylococcus aureus; conditions: for MICc (MIC of the most effective combination): checkerboard; for FIC: MICc/MICa
Method: The MIC values of four antibiotics (vancomycin, ampicillin, rifampicin and ciprofloxacin) to S. aureus ATCC43300 were tested as the MIC assay described above. The peptide solutions and antibiotics were diluted twofold with the final concentrations ranging from 1/16 to 8× MIC, and added into 96-well plates in a checkerboard fashion (White et al. [1996]). The results of combination were evaluated by calculating the fractional inhibitory concentration index (FICI) of each combination. FIC of H1, H2, H3=MIC of H1, H2, H3, respectively, in combination with antibiotic/MIC of H1, H2, H3 alone; FIC of antibiotics=MIC of antibiotic in combination with peptide/MIC of antibiotic alone; FICI = FIC of H1, H2, H3+ antibiotic, respectively. The result of interaction between two antimicrobial drugs was determined according to: FICI ≤ 0.5 refers to synergy, 0.5 < FICI ≤ 1 refers to additivity, 1 < FICI ≤ 4 refers to indifference, and FICI > 4 is defined as antagonism (Tsuji and Rybak [2006]).

S. aureus ATCC43300 [2] = test: Postantibiotic effect (PAE); assay type: cell-based, Staphylococcus aureus; conditions: 2× MIC, 2 h exposure at 37 °C, 1 × 10^8 CFU/ml, drug removed by 1:10^3 dilution; mean ± SD, n = 3
Method: After 2 h, the drug was removed by diluting 1:10^3 into the MHB and incubated at 37 °C, 250 rpm. The sample was taken to plate counting every 1 h until the bacterial cultures become turbid. The PAE was calculated by the following formula: PAE = T − C, where T is the time needed for the count of CFU in the test culture to increase 1 log10 (10-fold) above the 0 h and C is the time needed for the count of CFU in the untreated control culture to increase 1 log10 above the 0 h (Giguère et al. [2012]).

S. aureus ATCC6538 = test: MIC assay; assay type: cell-based, Staphylococcus aureus; conditions: Staphylococcus aureus, ATCC6538; MHB, 1 × 10^5 CFU/ml, 37 °C, 18–24 h, no visible growth, triplicate
Method: (§2) The peptide solutions were diluted twofold with the range of final concentrations were 0.015–32 µg/ml (0.003–7.273 µM) for purified H1, H2, H3, H6, and H8. The test strains were grown in MHB medium at 37 °C to an OD600 of 0.4 and diluted to 1 × 10^5 CFU/ml. The 10 µl peptide and 90 µl cell suspension were added into each well. All assays were performed in triplicate. The antimicrobial activity of NZ2114 and vancomycin were tested as positive controls. The plates were incubated at 37 °C for 18–24 h. MIC was defined as the lowest peptide concentration of ones at which there was no visible growth (Tian et al. [2009]).

S. aureus ATCC25923 = test: MIC assay; assay type: cell-based, Staphylococcus aureus; conditions: Staphylococcus aureus, ATCC25923; MHB, 1 × 10^5 CFU/ml, 37 °C, 18–24 h, no visible growth, triplicate
Method: as §2

[3] = system: S. aureus ATCC43300 (MRSA); test: MIC assay; assay type: cell-based; conditions: Staphylococcus aureus; MHB, 1 × 10^5 CFU/ml, 37 °C, 18–24 h, no visible growth, triplicate
Method: as §2

rabbit and human RBCs = conditions: ref Yang et al. [2011], Zhang et al. [2014]; cited from earlier work
Excerpt: Although the values were higher than NZ2114 due to the high charge and hydrophilicity, they were still very low in the range of MICs. […] Owing to contribution from the three pairs of disulfide bond into th ...

Row | Compound | MIC (S. suis CVCC606) | MIC (S. suis CVCC3309) | MIC (S. suis CVCC3928) | MIC (S. aureus ATCC43300 [1]; Staphylococcus aureus, ATCC43300, read-out: MICa (MIC of drug alone)) | MICc (MIC of the most effective combination) (S. aureus ATCC43300 [1]; in combination with H1) | MICc (MIC of the most effective combination) (S. aureus ATCC43300 [1]; in combination with H2) | MICc (MIC of the most effective combination) (S. aureus ATCC43300 [1]; in combination with H3) | FIC (S. aureus ATCC43300 [1]; in combination with H1) | FIC (S. aureus ATCC43300 [1]; in combination with H2) | FIC (S. aureus ATCC43300 [1]; in combination with H3) | PAE (S. aureus ATCC43300 [2]) | MIC (S. aureus ATCC6538) | MIC (S. aureus ATCC25923) | MIC [3] | hemolysis (rabbit and human RBCs)
1 | CN[C@H](CC(C)C)C(=O)N[C@H]1C(=O)N[C@@H](CC(N)=O)C(=O)N[C@H]2C(=O)N[C@H]3C(=O)N[C@H](C(=O)N[C@H](C(=O)O)c4cc(O)cc(O)c4-c4cc3ccc4O)[C@H](O)c3ccc(c(Cl)c3)Oc3cc2cc(c3O[C@@H]2O[C@H](CO)[C@@H](O)[C@H](O)[C@H]2O[C@H]2C[C@](C)(N)[C@H](O)[C@H](C)O2)Oc2ccc(cc2Cl)[C@H]1O [vancomycin] | 0.172^b μM | 0.172^b μM | 0.172^b μM | 0.714 µM | 0.714 µM | 0.714 µM | 0.714 µM | 1 | 1 | 1 | 1.72 ± 0.11 h | 1.43 µM (≈ 2.07 µg/mL) | 0.172 µM (≈ 0.249 µg/mL) | 0.714 µM (≈ 1.03 µg/mL) | –
2 | Plectasin | – | – | – | – | – | – | – | – | – | – | – | – | – | – | no hemolysis
